Here are results for 26 compounds from US20230373989A1, “N-PHENYLAMINOCARBONYL PYRIDINO-, PYRIMIDINO AND BENZO-TROPANES AS MODULATORS OF GPR65” (PATHIOS THERAPEUTICS LIMITED, priority 2020, published 2023).

Each structure is given as a SMILES string.

T1 sequence (Q8IYL9 whole entry): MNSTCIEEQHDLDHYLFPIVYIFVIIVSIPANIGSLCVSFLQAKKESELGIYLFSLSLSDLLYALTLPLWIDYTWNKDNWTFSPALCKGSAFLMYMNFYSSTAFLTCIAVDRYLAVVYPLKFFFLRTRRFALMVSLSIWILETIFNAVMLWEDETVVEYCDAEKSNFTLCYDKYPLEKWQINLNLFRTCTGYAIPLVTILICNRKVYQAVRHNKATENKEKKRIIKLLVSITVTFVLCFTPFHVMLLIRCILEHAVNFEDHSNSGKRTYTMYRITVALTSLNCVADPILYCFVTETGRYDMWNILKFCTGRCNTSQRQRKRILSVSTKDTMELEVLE

The first experiment concerns the target T1, human recombinant GPR65 (Homo sapiens, UniProt Q8IYL9).
T1 construct: host or cells: 1321N1 human astrocytoma cells (1321N1-hrGPR65)
Nature of the experiment: Human GPR65 cAMP HTRF antagonist assay. Type of experiment: cell-based.
Conditions: not given
The source says:
In one preferred embodiment, the compound prevents the increase in cytoplasmic cAMP levels expected following GPR65 activation at acidic pH. This prevention of cAMP accumulation in turn prevents downstream signalling through ICER, as described above. The “Human GPR65 cyclic adenosine monophosphate (cAMP) Homogeneous Time Resolved Fluorescence (HTRF) antagonist assay”, or simply “cAMP assay”, as described in the accompanying examples, can be used to measure the potency of GPR65 modulators, which is expressed as the concentration of compound required to reduce the increase in cAMP concentration upon GPR65 activation by 50% (i.e. an IC50).
Human GPR65 Cyclic Adenosine Monophosphate (cAMP) Homogeneous Time Resolved Fluorescence (HTRF) Antagonist Assay Procedure
IC50 data was obtained by the following procedure:
1321N1 human astrocytoma cells stably expressing human recombinant GPR65 (1321N1-hrGPR65 cells, EuroscreenFast) were cultured according to the vendor's instructions.
Compounds were tested for their ability to antagonise GPR65, through measuring the concentration of cytoplasmic cAMP following treatment of the cells at a pH of 7.2 to activate GPR65 signalling and addition of the compound to be tested. The extent to which the expected rise in cAMP concentration upon GPR65 activation was suppressed by the added compound is indicative of its potency. The assay was carried out according to EuroscreenFast assay methodology as follows.
On the day of the assay, test compounds were added to 384-well, low volume, white microtiter plates by acoustic dispensing. KRH buffer (5 mM KCl, 1.25 mM MgSO4, 124 mM NaCl, 25 mM HEPES, 13.3 mM Glucose, 1.25 mM KH2PO4 and 1.45 mM CaCl2) was adjusted to pH 6.5, pH 7.6 and pH 8.4 by adding NaOH. 1321N1-hGPR65 cells were rapidly thawed and diluted in KRH, pH 7.6 prior to centrifugation at 300×g for 5 min and resuspension in assay buffer (KRH, pH 7.6, supplemented with 1 mM 3-isobutyl-1-methylxanthine (IBMX) and 200 μM ethylenediaminetetraacetic acid (EDTA)). Cells were added to assay plates at a density of 2,000 cells per well in a volume of 5 μl. Assay plates were briefly centrifuged at 100×g and then incubated at room temperature for 30 min. Cells were stimulated by the addition of 5 μL KRH, pH 6.5, to achieve an assay pH of 7.2, while control wells received 5 μl KRH, pH 8.4 to achieve an assay pH of 7.9. Assay plates were briefly centrifuged at 100×g and then incubated at room temperature for 30 min.
Accumulation of cAMP was detected by cAMP HTRF kit (Cisbio). d2-labeled cAMP and cryptate-labeled anti-cAMP antibody in Lysis and Detection Buffer (Cisbio) were added to assay plates, and the plates were incubated at room temperature for 1 h. HTRF measurements were performed using a Pherastar FSX instrument. Acceptor and donor emission signals were measured at 665 nm and 620 nm, respectively, and HTRF ratios were calculated as signal665 nm/signal620 nm×104. Data were normalised to high and low control values and fitted with 4-parameter logistic regression to determine hGPR65 IC50 values for the test compounds, which are shown in Table 1.
Background: In TR-FRET formats the signal depends on donor and acceptor labels being close together.
One may read the IC50 as the midpoint of a concentration-inhibition curve. Regarding `O=C(Nc1ccc(C(F)(F)F)c(Cl)c1)N1C2CCC1c1cncnc1C2` (racemic) [Compound 2, (±)-N-(3-Chloro-4-(trifluoromethyl)phenyl)-6,7,8,9-tetrahydro-5H-5,8-epiminocyclohepta[d]pyrimidine-10-carboxamide], the IC50 is below 500 nM.
In the case of `O=C(Nc1ccc(Br)c(Cl)c1)N1C2CCC1c1cncnc1C2` (racemic) [Compound 7, (±)-N-(4-Bromo-3-chlorophenyl)-6,7,8,9-tetrahydro-5H-5,8-epiminocyclohepta[d]pyrimidine-10-carboxamide], the IC50 is below 500 nM.
The same measure, in the same setting: as for `O=C(Nc1ccc(C(F)(F)F)c(Br)c1)N1C2CCC1c1cncnc1C2` (racemic) [Compound 15, (±)-N-(3-Bromo-4-(trifluoromethyl)phenyl)-6,7,8,9-tetrahydro-5H-5,8-epiminocyclohepta[d]pyrimidine-10-carboxamide], the figure is below 500 nM; as for `O=C(Nc1ccc(Br)c(Br)c1)N1C2CCC1c1cncnc1C2` (racemic) [Compound 16, (±)-N-(3,4-Dibromophenyl)-6.7,8,9-tetrahydro-5H-5,8-epiminocyclohepta[d]pyrimidine-10-carboxamide], below 500 nM.
Take `O=C(Nc1ccc(Cl)c(Cl)c1)N1C2CCC1c1ncncc1C2` (racemic) [Compound 17, (±)-N-(3,4-Dichlorophenyl)-6,7,8,9-tetrahydro-5H-6,9-epiminocyclohepta[d]pyrimidine-10-carboxamide]: the IC50 was below 500 nM.
Same read-out and setting: the value for `O=C(Nc1ccc(C(F)(F)F)c(Cl)c1)N1C2CCC1c1ncncc1C2` (racemic) [Compound 18, (±)-N-(3-Chloro-4-(trifluoromethyl)phenyl)-6,7,8,9-tetrahydro-5H-6,9-epiminocyclohepta[d]pyrimidine-10-carboxamide] was below 500 nM; that for `O=C(Nc1ccc(Cl)c(Cl)c1)N1C2CCC1c1cnc(=O)[nH]c1C2` (racemic) [Compound 31, (±)-N-(3,4-Dichlorophenyl)-2-oxo-2,5,6,7,8,9-hexahydro-1H-5,8-epiminocyclohepta[d]pyrimidine-10-carboxamide] was below 500 nM.
With `O=C(Nc1ccc(C(F)(F)F)c(Cl)c1)N1C2CCC1c1cnc(=O)[nH]c1C2` (racemic) [Compound 32, (±)-N-(3-Chloro-4-(trifluoromethyl)phenyl)-2-oxo-2,5,6,7,8,9-hexahydro-1H-5,8-epiminocyclohepta[d]pyrimidine-10-carboxamide], the IC50 was below 500 nM.
Still for that read-out and setting: as for `O=C(Nc1ccc(C(F)(F)F)c(Cl)c1)N1C2CCC1c1ccncc1C2` (racemic) [Compound 35, (±)-N-(3-Chloro-4-(trifluoromethyl)phenyl)-6,7,8,9-tetrahydro-5H-5,8-epiminocyclohepta[c]pyridine-10-carboxamide], the figure is below 500 nM.
Take `O=C(Nc1ccc(Cl)c(Cl)c1)N1C2CCC1c1ccncc1C2` (racemic) [Compound 36, (±)-N-(3,4-Dichlorophenyl)-6,7,8,9-tetrahydro-5H-5,8-epiminocyclohepta[c]pyridine-10-carboxamide]: the IC50 was below 500 nM.

The experiment is the same for the next values; noted with them: 1321N1-hrGPR65 cells, assay pH 7.2, cAMP HTRF; read-out: hGPR65 IC50 (activity class).
For the compound `O=C(Nc1ccc(C(F)(F)F)cc1)N1C2CCC1c1cncnc1C2` (racemic) [Compound 1, (±)-N-(4-(Trifluoromethyl)phenyl)-6,7,8,9-tetrahydro-5H-5,8-epiminocyclohepta[d]pyrimidine-10-carboxamide], the IC50 fell in the range of 500 to 5000 nM.
Take `O=C(Nc1ccc(Cl)c(C(F)(F)F)c1)N1C2CCC1c1cncnc1C2` (racemic) [Compound 3, (±)-N-(4-Chloro-3-(trifluoromethyl)phenyl)-6,7,8,9-tetrahydro-5H-5,8-epiminocyclohepta[d]pyrimidine-10-carboxamide]: the IC50 lay in the range of 500 to 5000 nM.
Consider `O=C(Nc1cc(Cl)cc(Cl)c1)N1C2CCC1c1cncnc1C2` (racemic) [Compound 4, (±)-N-(3,5-Dichlorophenyl)-6,7,8,9-tetrahydro-5H-5,8-epiminocyclohepta[d]pyrimidine-10-carboxamide], for which the IC50 is 500 to 5000 nM.
On the same count and under the same terms, as for `O=C(Nc1ccc(F)c(C(F)(F)F)c1)N1C2CCC1c1cncnc1C2` (racemic) [Compound 5, (±)-N-(4-Fluoro-3-(trifluoromethyl)phenyl)-6,7,8,9-tetrahydro-5H-5,8-epiminocyclohepta[d]pyrimidine-10-carboxamide], the figure is above 5000 nM; as for `O=C(Nc1ccc(F)c(F)c1)N1C2CCC1c1cncnc1C2` (racemic) [Compound 6, (±)-N-(3,4-Difluorophenyl)-6,7,8,9-tetrahydro-5H-5,8-epiminocyclohepta[d]pyrimidine-10-carboxamide], above 5000 nM; as for `COc1ccc(NC(=O)N2C3CCC2c2cncnc2C3)cc1Cl` (racemic) [Compound 8, (±)-N-(3-Chloro-4-methoxyphenyl)-6,7,8,9-tetrahydro-5H-5,8-epiminocyclohepta[d]pyrimidine-10-carboxamide], above 5000 nM.
As for `N#Cc1ccc(NC(=O)N2C3CCC2c2cncnc2C3)cc1Cl` (racemic) [Compound 11, (±)-N-(3-chloro-4-cyanophenyl)-6,7,8,9-tetrahydro-5H-5,8-epiminocyclohepta[d]pyrimidine-10-carboxamide], the IC50 was in the range of 500 to 5000 nM.
For `O=C(Nc1ccc(Cl)c(Br)c1)N1C2CCC1c1cncnc1C2` (racemic) [Compound 12, (±)-N-(3-Bromo-4-chlorophenyl)-6,7,8,9-tetrahydro-5H-5,8-epiminocyclohepta[d]pyrimidine-10-carboxamide], the IC50 was 500 to 5000 nM.
Regarding `N#Cc1ccc(NC(=O)N2C3CCC2c2cncnc2C3)cc1Br` (racemic) [Compound 13, (±)-N-(3-Bromo-4-cyanophenyl)-6,7,8,9-tetrahydro-5H-5,8-epiminocyclohepta[d]pyrimidine-10-carboxamide], the IC50 is above 5000 nM.
For the compound `O=C(Nc1ccc(Cl)c(Cl)c1)N1C2CCC1c1cnc(C(F)(F)F)nc1C2` (racemic) [Compound 24, (±)-N-(3,4-Dichlorophenyl)-2-(trifluoromethyl)-6,7,8,9-tetrahydro-5H-5,8-epiminocyclohepta[d]pyrimidine-10-carboxamide], the IC50 was above 5000 nM.
With `Cc1ncc2c(n1)CC1CCC2N1C(=O)Nc1ccc(Cl)c(Cl)c1` (racemic) [Compound 25, (±)-N-(3,4-Dichlorophenyl)-2-methyl-6,7,8,9-tetrahydro-5H-5,8-epiminocyclohepta[d]pyrimidine-10-carboxamide], the IC50 was above 5000 nM.
On to `O=C(Nc1ccc(Cl)c(Cl)c1)N1C2CCC1c1cnc(-c3ccccc3)nc1C2` (racemic) [Compound 26, (±)-N-(3,4-Dichlorophenyl)-2-phenyl-6,7,8,9-tetrahydro-5H-5,8-epiminocyclohepta[d]pyrimidine-10-carboxamide], for which the IC50 was in the range of 500 to 5000 nM.
In the case of `O=C(Nc1ccc(C(F)(F)F)c(Cl)c1)N1C2CCC1c1cnc(C(F)(F)F)nc1C2` (racemic) [Compound 27, (±)-N-(3-Chloro-4-(trifluoromethyl)phenyl)-2-(trifluoromethyl)-6,7,8,9-tetrahydro-5H-5,8-epiminocyclohepta[d]pyrimidine-10-carboxamide], the IC50 was above 5000 nM.
Still for that read-out and setting: as for `O=C(Nc1ccc(Cl)c(C(F)(F)F)c1)N1C2CCC1c1cnc(-c3ccccc3)nc1C2` (racemic) [Compound 28, (±)-N-(4-Chloro-3-(trifluoromethyl)phenyl)-2-phenyl-6,7,8,9-tetrahydro-5H-5,8-epiminocyclohepta[d]pyrimidine-10-carboxamide], the figure is above 5000 nM.
On to `O=C(Nc1ccc(C(F)(F)F)c(Cl)c1)N1C2CCC1c1cnc(-c3ccccc3)nc1C2` (racemic) [Compound 29, (±)-N-(3-Chloro-4-(trifluoromethyl)phenyl)-2-phenyl-6,7,8,9-tetrahydro-5H-5,8-epiminocyclohepta[d]pyrimidine-10-carboxamide], for which the IC50 was in the range of 500 to 5000 nM.
As for `O=C(Nc1ccc(Cl)c(Cl)c1)N1C2CCC1c1ccccc1C2` (racemic) [Compound 34, (±)-N-(3,4-Dichlorophenyl)-6,7,8,9-tetrahydro-5H-5,8-epiminobenzo[7]annulene-10-carboxamide], the IC50 was 500 to 5000 nM.
